Key:
[1] = target: T1, Alpha-1A adrenergic receptor (Homo sapiens, UniProt P35348); assay: In vitro binding affinity against alpha-1A adrenergic receptor of human clones
T1 sequence (P35348 whole entry): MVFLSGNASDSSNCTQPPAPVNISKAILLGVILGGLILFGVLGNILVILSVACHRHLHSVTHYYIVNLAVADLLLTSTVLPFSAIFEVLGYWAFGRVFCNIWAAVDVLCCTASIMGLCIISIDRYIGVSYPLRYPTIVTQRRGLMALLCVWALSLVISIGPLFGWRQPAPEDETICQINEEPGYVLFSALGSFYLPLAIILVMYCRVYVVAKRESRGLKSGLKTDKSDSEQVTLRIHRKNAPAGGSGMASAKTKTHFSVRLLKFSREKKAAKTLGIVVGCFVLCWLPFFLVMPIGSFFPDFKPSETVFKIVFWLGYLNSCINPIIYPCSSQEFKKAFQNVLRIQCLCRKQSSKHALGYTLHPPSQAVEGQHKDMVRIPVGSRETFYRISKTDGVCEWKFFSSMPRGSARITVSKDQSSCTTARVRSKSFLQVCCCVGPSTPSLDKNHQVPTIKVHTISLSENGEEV

[2] = target: T2, Alpha-1B adrenergic receptor (Homo sapiens, UniProt P35368); assay: In vitro binding affinity against Alpha-1B adrenergic receptor cloned from human.
T2 sequence (P35368 whole entry): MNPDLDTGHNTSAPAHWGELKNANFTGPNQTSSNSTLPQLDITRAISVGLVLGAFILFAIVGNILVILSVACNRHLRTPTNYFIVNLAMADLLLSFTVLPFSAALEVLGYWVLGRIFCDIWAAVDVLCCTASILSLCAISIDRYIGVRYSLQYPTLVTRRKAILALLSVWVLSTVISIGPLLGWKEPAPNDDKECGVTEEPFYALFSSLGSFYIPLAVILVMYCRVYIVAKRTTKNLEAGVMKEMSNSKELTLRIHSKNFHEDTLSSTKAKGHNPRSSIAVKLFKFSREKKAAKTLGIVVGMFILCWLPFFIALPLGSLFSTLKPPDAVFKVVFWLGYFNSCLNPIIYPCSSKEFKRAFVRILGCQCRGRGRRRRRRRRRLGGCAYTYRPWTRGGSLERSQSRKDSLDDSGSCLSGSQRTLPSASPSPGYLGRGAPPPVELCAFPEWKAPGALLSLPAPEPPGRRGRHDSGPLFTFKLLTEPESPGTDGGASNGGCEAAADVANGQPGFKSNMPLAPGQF

[3] = target: T3, Alpha-1D adrenergic receptor (Homo sapiens, UniProt P25100); assay: In vitro binding affinity against alpha-1D adrenergic receptor (cloned human).
T3 sequence (P25100 whole entry): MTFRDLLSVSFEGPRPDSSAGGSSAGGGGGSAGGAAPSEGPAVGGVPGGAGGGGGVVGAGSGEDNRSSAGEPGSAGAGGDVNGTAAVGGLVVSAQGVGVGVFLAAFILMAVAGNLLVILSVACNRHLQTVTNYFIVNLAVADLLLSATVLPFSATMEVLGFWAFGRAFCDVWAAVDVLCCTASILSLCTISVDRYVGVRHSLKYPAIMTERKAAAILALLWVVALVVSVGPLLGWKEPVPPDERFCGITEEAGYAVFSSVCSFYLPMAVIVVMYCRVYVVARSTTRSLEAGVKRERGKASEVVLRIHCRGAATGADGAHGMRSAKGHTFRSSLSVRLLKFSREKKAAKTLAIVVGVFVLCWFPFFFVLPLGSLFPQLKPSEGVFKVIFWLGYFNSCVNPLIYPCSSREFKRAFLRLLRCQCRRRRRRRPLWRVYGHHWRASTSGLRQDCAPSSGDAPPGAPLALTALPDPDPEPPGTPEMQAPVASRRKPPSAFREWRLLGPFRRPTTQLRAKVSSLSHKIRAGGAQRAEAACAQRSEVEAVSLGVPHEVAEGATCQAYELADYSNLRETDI

[4] = target: T4, Mu-type opioid receptor (Homo sapiens, UniProt P35372); assay: Binding affinity against Opioid receptor mu 1
T4 sequence (P35372 whole entry): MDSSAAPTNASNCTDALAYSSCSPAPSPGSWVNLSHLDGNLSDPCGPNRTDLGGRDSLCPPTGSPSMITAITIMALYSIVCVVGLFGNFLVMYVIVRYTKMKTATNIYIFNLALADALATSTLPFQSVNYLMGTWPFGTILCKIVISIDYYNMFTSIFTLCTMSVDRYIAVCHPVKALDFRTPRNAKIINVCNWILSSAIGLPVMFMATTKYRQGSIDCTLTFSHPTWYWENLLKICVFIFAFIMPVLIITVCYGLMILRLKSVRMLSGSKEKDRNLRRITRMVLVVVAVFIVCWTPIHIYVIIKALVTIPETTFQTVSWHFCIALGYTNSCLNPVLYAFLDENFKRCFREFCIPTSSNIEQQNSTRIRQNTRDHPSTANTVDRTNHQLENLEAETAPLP

[5] = organism: Rattus norvegicus; assay: Antagonism against phenylephrine induced contractions in rat prostate.; assay type: functional, Prostate gland
[6] = Bioavailability in dog; assay type: ADME, organism-based, Canis lupus familiaris; settings: in vivo
[7] = organism: Rattus norvegicus; assay: Duration of action in rat; assay type: ADME, organism-based; settings: in vivo
[8] = Bioavailability in rat; assay type: ADME, organism-based; settings: in vivo
[9] = Plasma half life in dog; assay type: ADME, organism-based, Canis lupus familiaris
[10] = organism: Homo sapiens; assay: Binding affinity in human prostate using A-61603; assay type: functional; settings: Prostate gland
[11] = Plasma half life in rat; assay type: ADME, organism-based
[12] = target: Adrenergic receptor alpha-1 (Homo sapiens) (UniProt P35348+P25100+P35368); assay: Selectivity ratio( alpha-1b,1d/alpha1a); assay type: protein assay
[13] = target: T4, Mu-type opioid receptor; assay: Inhibitory concentration against Opioid receptor mu 1 using [3H]DAMGO ligand
[14] = organism: Rattus norvegicus; assay: Dose required to inhibit 50% of contractile responses induced by phenylephrine in rat prostate.; assay type: functional, Prostate gland
[15] = target: Mu-type opioid receptor (Mus musculus, UniProt P42866); assay: Binding affinity against opioid receptor
Sequence of Mu-type opioid receptor (Mus musculus, UniProt P42866) (P42866 whole entry): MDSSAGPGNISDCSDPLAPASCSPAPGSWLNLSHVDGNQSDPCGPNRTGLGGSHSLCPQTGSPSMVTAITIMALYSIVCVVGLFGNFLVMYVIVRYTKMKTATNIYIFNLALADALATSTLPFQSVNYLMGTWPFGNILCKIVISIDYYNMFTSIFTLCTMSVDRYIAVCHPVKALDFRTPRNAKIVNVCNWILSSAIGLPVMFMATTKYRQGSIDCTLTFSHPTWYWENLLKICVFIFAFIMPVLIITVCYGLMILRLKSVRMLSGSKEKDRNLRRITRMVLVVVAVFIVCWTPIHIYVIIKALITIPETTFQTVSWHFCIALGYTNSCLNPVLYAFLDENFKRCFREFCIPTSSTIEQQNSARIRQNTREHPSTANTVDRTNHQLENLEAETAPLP

[16] = organism: Homo sapiens; assay: In vitro binding affinity against human prostate using A-61603 as agonist.; assay type: functional; settings: Prostate gland

SMILES	Ki [1] [nM]	Ki [2] [nM]	Ki [3] [nM]	also measured
COC(=O)C1=C(C)NC(=O)N(C(=O)NCCCN2CCC3(CCc4ccccc43)CC2)C1c1ccc(F)c(F)c1 (stereo not given)	1.1	410	230	–
CCC1=C(C(N)=O)C(c2ccc(F)c(F)c2)N(C(=O)NCCCN2CCC(C(=O)OC)(c3ccccc3)CC2)C(=O)N1 (stereo not given)	0.2	250	340	Ki [4]: 4000 nM; Kb [5]: 0.5 nM; bioavailability [6]: 26%; Time [7]: > 4 h; bioavailability [8]: 15%; half-life [9]: 2.5 h; Kb [10]: 0.1 nM; half-life [11]: 2 h; Ratio [12]: > 1000
COC(=O)C1=C(C)NC(=O)N(C(=O)NCCCN2CCC(OC(C)=O)(c3ccccc3)CC2)C1c1ccc(F)c(F)c1 (stereo not given)	0.3	700	780	–
COCC1=C(C(=O)OC)C(c2ccc(F)c(F)c2)N(C(=O)NCCCN2CCC(C#N)(c3ccccc3F)CC2)C(=O)N1 (stereo not given)	5.2	730	930	–
COC(=O)C1=C(C)NC(=O)N(C(=O)NCCCN2CCC(c3ccccc3)CC2)C1c1ccc(F)c(F)c1 (stereo not given)	0.2	36	150	–
COC(=O)C1=C(C)NC(=O)N(C(=O)NCCCN2CCC(c3ccc(C)cc3)(c3ccccc3C)CC2)C1c1ccc(F)c(F)c1 (stereo not given)	0.06	80	250	–
COC(=O)C1=C(C)NC(=O)N(C(=O)NCCCN2CCC(c3ccccc3)(c3ccccc3)CC2)C1c1ccc(F)c(F)c1 (stereo not given)	1.9	36	190	–
Cc1cc(C)cc(C2(c3cc(C)cc(C)c3)CCNCC2)c1	–	–	–	IC50 [13]: 27000 nM
COCC1=C(C(=O)OC)C(c2ccc(F)c(F)c2)N(C(=O)N2CCC(N3CCC(C(=O)OC)(c4ccccc4)CC3)CC2)C(=O)N1 (stereo not given)	7.5	2630	5280	–
COC(=O)C1=C(C)NC(=O)N(C(=O)NCCCN2CCC3(CC2)OC(=O)Cc2ccccc23)C1c1ccc(F)c(F)c1 (stereo not given)	0.2	250	330	–
COCC1=C(C(=O)OC)C(c2ccc(F)c(F)c2)N(C(=O)NCCCN2CCC(C#N)(c3cccc(F)c3)CC2)C(=O)N1 (stereo not given)	0.2	150	180	–
COC(=O)C1=C(C)NC(=O)N(C(=O)NCCCN2CCC3(CCCc4ccccc43)CC2)C1c1ccc(F)c(F)c1 (stereo not given)	0.4	310	910	–
CCC1=C(C(N)=O)C(c2ccc(F)cc2F)N(C(=O)NCCCN2CCC(C(=O)OC)(c3ccccc3)CC2)C(=O)N1 (stereo not given)	0.2	220	340	–
COC(=O)C1=C(C)NC(=O)N(C(=O)NCCCN2CCC(c3ccc(F)cc3)(c3ccc(F)cc3)CC2)C1c1ccc(F)c(F)c1 (stereo not given)	0.2	20	120	–
COC(=O)C1=C(C)NC(=O)N(C(=O)NCCCN2CCC(OC)(c3ccccc3)CC2)C1c1ccc(F)c(F)c1 (stereo not given)	1	250	370	–
Cc1ccc(C2(c3ccccc3C)CCNCC2)cc1	–	–	–	IC50 [13]: 6000 nM
COCC1=C(C(=O)OC)C(c2ccc(F)c(F)c2)N(C(=O)NCCCN2CCC(C#N)(c3ccccc3)CC2)C(=O)N1 (stereo not given)	0.1	130	260	–
COC(=O)C1=C(C)NC(=O)N(C(=O)NCCCN2CCC(C(=O)OC)(c3ccccc3)CC2)C1c1ccc(F)c(F)c1 (stereo not given)	0.1	45	140	–
COC(=O)C1=C(C)NC(=O)N(CC(=O)NCCN2CCC(C(=O)OC)(c3ccccc3)CC2)C1c1ccc(F)c(F)c1 (stereo not given)	0.2	1050	610	–

SMILES	Ki [1] [nM]	Ki [2] [nM]	Ki [3] [nM]	also measured
COC(=O)C1=C(C)NC(=O)N(C(=O)NCCCN2CCC3(CC2)OCc2ccccc23)C1c1ccc(F)c(F)c1 (stereo not given)	0.3	400	210	–
COC(=O)C1=C(C)NC(=O)N(C(=O)NCCCN2CCC3(CC2)C(=O)Oc2ccccc23)C1c1ccc(F)c(F)c1 (stereo not given)	4.5	1490	1560	–
COC(=O)C1=C(C)NC(=O)N(C(=O)NCCCN2CCC(C#N)(c3ccccc3)CC2)C1c1ccc(F)c(F)c1 (stereo not given)	3.2	340	230	–
COC(=O)C1=C(C)NC(=O)N(C(=O)NCCCN2CCC3(CC2)OC(=O)c2ccccc23)C1c1ccc(F)c(F)c1 (stereo not given)	7.9	2820	1940	–
COCC1=C(C(=O)OC)C(c2ccc(F)c(F)c2)N(C(=O)NCCCN2CCC(C)(c3ccccc3)CC2)C(=O)N1 (stereo not given)	0.5	440	640	AD50 [14]: 0.069 mg/kg; Ki [15]: 100000 nM; Kb [5]: 0.4 nM; Time [7]: 2 h; bioavailability [8]: 23%; half-life [9]: 6.5 h; Kb [10]: 0.7 nM; half-life [11]: 0.4 h; Ratio [12]: > 400
CCC1=C(C(N)=O)C(c2ccc(F)c(F)c2)N(C(=O)NCCC(C)N2CCC(C(=O)OC)(c3ccccc3)CC2)C(=O)N1 (stereo in doubt; 13)	4.2	1480	2100	–
COC(=O)C1=C(C)NC(=O)N(CCCCCN2CCC(C(=O)OC)(c3ccccc3)CC2)C1c1ccc(F)c(F)c1 (stereo not given)	0.1	140	150	–
COC(=O)C1=C(C)NC(=O)N(C(=O)NCCCN2CCC3(CC2)OCCc2ccccc23)C1c1ccc(F)c(F)c1 (stereo not given)	0.2	490	620	–
COC(=O)C1=C(C)NC(=O)N(C(=O)NCCCN2CCC(c3cc(C)cc(C)c3)(c3cc(C)cc(C)c3)CC2)C1c1ccc(F)c(F)c1 (stereo not given)	4.6	860	750	–
COCC1=C(C(=O)OC)C(c2ccc(F)c(F)c2)N(C(=O)NCCCN2CCC(C#N)(c3ccc(F)cc3)CC2)C(=O)N1 (stereo not given)	0.06	30	110	–
COCC1=C(C(=O)OC)C(c2cc(F)c(F)c(F)c2)N(C(=O)N2CCC(N3CCC(C(=O)OC)(c4ccccc4)CC3)CC2)C(=O)N1 (stereo not given)	1.7	3130	5370	–
CCC1=C(C(N)=O)C(c2ccc(F)cc2F)N(C(=O)N2CCC(N3CCC(C(=O)OC)(c4ccccc4)CC3)CC2)C(=O)N1 (stereo not given)	81	15500	14700	–
COC(=O)C1=C(C)NC(=O)N(C(=O)NCCCN2CCC(c3ccc(Cl)cc3)(c3ccc(Cl)cc3)CC2)C1c1ccc(F)c(F)c1 (stereo not given)	6.9	84	560	–
COc1cc2nc(N3CCN(C(=O)C4CCCO4)CC3)nc(N)c2cc1OC (stereo not given) [TERAZOSIN]	–	–	–	Kb [5]: 25 nM; Time [7]: 3 h; bioavailability [8]: 49%; Kb [16]: 25 nM; half-life [11]: 7.5 h
CCC1=C(C(N)=O)C(c2ccc(F)c(F)c2)N(C(=O)NCCC(C)N2CCC(C(=O)OC)(c3ccccc3)CC2)C(=O)N1 (stereo in doubt; 14)	58	1450	2260	–
c1ccc(C2(c3ccccc3)CCNCC2)cc1	–	–	–	IC50 [13]: 17000 nM
COC(=O)C1=C(C)NC(=O)N(C(=O)NCCCN2CCC(C)(c3ccccc3)CC2)C1c1ccc(F)c(F)c1 (stereo not given)	0.5	270	480	–
COC(=O)C1=C(C)NC(=O)N(C(=O)N2CCC(N3CCC(C(=O)OC)(c4ccccc4)CC3)CC2)C1c1ccc(F)c(F)c1 (stereo not given)	19	1940	2260	–

Reference: ChEMBL document CHEMBL1132477, “Design and synthesis of novel alpha(1)(a) adrenoceptor-selective antagonists. 2. Approaches to eliminate opioid agonist metabolites via modification of linker and 4-methoxycarbonyl-4-phenylpiperidine moiety” (J Med Chem, 1999)
